This is an account of results in patent publication US11261211B2, “19-NOR neuroactive steroids and methods of use thereof” (Sage Therapeutics, Inc., priority 2013, dated 2022).

Broadly, the Emax is the greatest response seen or fitted, relative to the assay's reference. The EC50 is the concentration giving half of the maximal effect.

The first assay has as its target α1β2γ2 GABAA receptor (Homo sapiens (Human), UniProt P14867+P47870). Description: Patch clamp electrophysiology of recombinant α1β2γ2 GABAA receptors in LTK cells. The assay is classed as cell-based. To be noted: 10 μM compound, Qpatch, Ltk cells, GABA EC20 2 μM. As to the method:
Cellular electrophysiology is used to measure the pharmacological properties of our GABAA receptor modulators in heterologous cell systems. Each compound is tested for its ability to affect GABA mediated currents at a submaximal agonist dose (GABA EC20=2 μM). LTK cells are stably transfected with the α1β2γ2 subunits of the GABA receptor and CHO cells are transiently transfected with the α4β3δ subunits via the Lipofecatamine method. Cells were passaged at a confluence of about 50-80% and then seeded onto 35 mm sterile culture dishes containing 2 ml culture complete medium without antibiotics or antimycotics. Confluent clusters of cells are electrically coupled (Pritchett et al., 1988). Because responses in distant cells are not adequately voltage clamped and because of uncertainties about the extent of coupling (Verdoorn et al., 1990), cells were cultivated at a density that enables the recording of single cells (without visible connections to other cells).
Whole cell currents were measured with HEKA EPC-10 amplifiers using PatchMaster software or by using the high throughput QPatch platform (Sophion). Bath solution for all experiments contained (in mM): NaCl 137 mM, KCl 4 mM, CaCl2 1.8 mM, MgCl2 1 mM, HEPES 10 mM, D-Glucose 10 mM, pH (NaOH) 7.4. In some cases 0.005% cremophor was also added. Intracellular (pipette) solution contained: KCl 130 mM, MgCl2 1 mM, Mg-ATP 5 mM, HEPES 10 mM, EGTA 5 mM, pH 7.2. During experiments, cells and solutions were maintained at room temperature (19° C.-30° C.). For manual patch clamp recordings, cell culture dishes were placed on the dish holder of the microscope and continuously perfused (1 ml/min) with bath solution. After formation of a Gigaohm seal between the patch electrodes and the cell (pipette resistance range: 2.5 MΩ-6.0 MΩ; seal resistance range: >1 GΩ) the cell membrane across the pipette tip was ruptured to assure electrical access to the cell interior (whole-cell patch-configuration). For experiments using the QPatch system, cells were transferred as suspension to the QPatch system in the bath solution and automated whole cell recordings were performed.
Cells were voltage clamped at a holding potential of −80 mV. For the analysis of test articles, GABA receptors were stimulated by 2 μM GABA after sequential pre-incubation of increasing concentrations of the test article. Pre-incubation duration was 30 s and the duration of the GABA stimulus was 2 s. Test articles were dissolved in DMSO to form stock solutions (10 mM). Test articles were diluted to 0.01, 0.1, 1, and 10 μM in bath solution. All concentrations of test articles were tested on each cell. The relative percentage potentiation was defined as the peak amplitude in response to GABA EC20 in the presence of the test article divided by the peak amplitude in response to GABA EC20 alone, multiplied by 100.
(The patch-clamp technique gives a direct electrical read-out from membranes.)
With `C[C@@]1(O)CC[C@H]2[C@H](CC[C@@H]3[C@@H]2CC[C@]2(C)[C@@H](C(=O)Cn4ncc5cccnc54)CC[C@@H]32)C1` [SA-19], the “α1β2γ2 GABA Qpatch in Ltk (Efficacy at 10 μm)” value is given as “B (“B” indicates an efficacy value of >100-500%)”.
As for `C[C@@]1(O)CC[C@H]2[C@@H](CC[C@@H]3[C@@H]2CC[C@]2(C)[C@@H](C(=O)Cn4ncc5ccncc54)CC[C@@H]32)C1` [SB-10], the “α1β2γ2 GABA Qpatch in Ltk (Efficacy at 10 μm)” value is “B (“B” indicates an efficacy value of >100-500%)”.
The same measure, in the same setting: the value for `C[C@@]1(O)CC[C@H]2[C@H](CC[C@@H]3[C@@H]2CC[C@]2(C)[C@@H](C(=O)Cn4ncc5cnccc54)CC[C@@H]32)C1` [SA-9] was “B (“B” indicates an efficacy value of >100-500%)”.

Staying with this assay, now noted: LTK, 10 μM compound, Qpatch, Ltk cells, GABA EC20 2 μM; read-out: α1β2γ2 GABA Qpatch in Ltk (Efficacy at 10 μm).
Take `COC[C@@]1(O)CC[C@H]2[C@H](CC[C@@H]3[C@@H]2CC[C@]2(C)[C@@H](C(=O)Cn4nnc5ccncc54)CC[C@@H]32)C1` [SA-124]: the activity at 10 µM lay within 100 to 500%.
Still for that read-out and setting: the value for `COC[C@@]1(O)CC[C@H]2[C@@H](CC[C@@H]3[C@@H]2CC[C@]2(C)[C@@H](C(=O)Cn4ncc5ccncc54)CC[C@@H]32)C1` [SB-46] was 100 to 500%; that for `C[C@@]1(O)CC[C@H]2[C@H](CC[C@@H]3[C@@H]2CC[C@]2(C)[C@@H](C(=O)Cn4nnc5cccc(Cl)c54)CC[C@@H]32)C1` [SA-77] was more than 500%.
Regarding `C[C@]12CC[C@H]3[C@@H](CC[C@@H]4C[C@@](O)(CF)CC[C@@H]43)[C@@H]1CC[C@@H]2C(=O)Cn1nc2ccc(F)cc2n1` [SA-89], the activity at 10 µM was 100 to 500%.
Same read-out and setting: the value for `Cc1cc2cnn(CC(=O)[C@H]3CC[C@H]4[C@@H]5CC[C@@H]6C[C@](C)(O)CC[C@@H]6[C@H]5CC[C@]34C)c2cn1` [SA-25] was more than 500%; that for `C[C@@]1(O)CC[C@H]2[C@H](CC[C@@H]3[C@@H]2CC[C@]2(C)[C@@H](C(=O)Cn4ncc5ncncc54)CC[C@@H]32)C1` [SA-33] was 100 to 500%; that for `C[C@@]1(O)CC[C@H]2[C@H](CC[C@@H]3[C@@H]2CC[C@]2(C)[C@@H](C(=O)Cn4nnc5cnccc54)CC[C@@H]32)C1` [SA-12] was 100 to 500%.
As to `CCOC[C@@]1(O)CC[C@H]2[C@@H](CC[C@@H]3[C@@H]2CC[C@]2(C)[C@@H](C(=O)Cn4nc5ccc(F)cc5n4)CC[C@@H]32)C1` [SB-60], the activity at 10 µM fell in the range of 10 to 100%.
On the same count and under the same terms, the value for `Cn1c(CC(=O)[C@H]2CC[C@H]3[C@@H]4CC[C@@H]5C[C@](C)(O)CC[C@@H]5[C@H]4CC[C@]23C)nc2ccccc21` [SA-105] was more than 500%.
For the compound `C[C@@]1(O)CC[C@H]2[C@@H](CC[C@@H]3[C@@H]2CC[C@]2(C)[C@@H](C(=O)Cn4nc5ccc(F)cc5n4)CC[C@@H]32)C1` [SB-11], the activity at 10 µM lay within 100 to 500%.
For `C[C@@]1(O)CC[C@H]2[C@H](CC[C@@H]3[C@@H]2CC[C@]2(C)[C@@H](C(=O)Cn4nnc5c(Cl)cccc54)CC[C@@H]32)C1` [SA-76], the activity at 10 µM is more than 500%.
Turning to `Cc1ccc2c(c1)nnn2CC(=O)[C@H]1CC[C@H]2[C@@H]3CC[C@@H]4C[C@](C)(O)CC[C@@H]4[C@H]3CC[C@]12C` [SA-43], the activity at 10 µM was 100 to 500%.
`C[C@]12CC[C@H]3[C@@H](CC[C@@H]4C[C@@](O)(C(F)F)CC[C@@H]43)[C@@H]1CC[C@@H]2C(=O)Cn1ncc2ncccc21` [SA-94]: the activity at 10 µM lay in the range of 100 to 500%.
As for `CC[C@@]1(O)CC[C@H]2[C@@H](CC[C@@H]3[C@@H]2CC[C@]2(C)[C@@H](C(=O)Cn4nnc5ccccc54)CC[C@@H]32)C1` [SB-35], the activity at 10 µM lay within 10 to 100%.
Still for that read-out and setting: the value for `C[C@]12CC[C@H]3[C@@H](CC[C@H]4C[C@@](O)(CF)CC[C@@H]43)[C@@H]1CC[C@@H]2C(=O)Cn1nc2ccc(F)cc2n1` [SG-24] was 100 to 500%; that for `CC[C@@]1(O)CC[C@H]2[C@H](CC[C@@H]3[C@@H]2CC[C@]2(C)[C@@H](C(=O)Cn4cc5ncccc5n4)CC[C@@H]32)C1` [SA-110] was more than 500%; that for `C[C@@]1(O)CC[C@H]2[C@@H](CC[C@@H]3[C@@H]2CC[C@]2(C)[C@@H](C(=O)Cn4nnc5cnccc54)CC[C@@H]32)C1` [SB-7] was 100 to 500%.
Consider `C[C@]12CC[C@H]3[C@@H](CC[C@@H]4C[C@@](O)(C(F)F)CC[C@@H]43)[C@@H]1CC[C@@H]2C(=O)Cn1cc2ccncc2n1` [SA-99], for which the activity at 10 µM was more than 500%.
Still for that read-out and setting: the value for `C[C@]12CC[C@H]3[C@@H](CC[C@H]4C[C@@](O)(CF)CC[C@@H]43)[C@@H]1CC[C@@H]2C(=O)Cn1ncc2ncccc21` [SB-17] was 10 to 100%; that for `COC[C@@]1(O)CC[C@H]2[C@H](CC[C@@H]3[C@@H]2CC[C@]2(C)[C@@H](C(=O)Cn4nnc5cnccc54)CC[C@@H]32)C1` [SA-123] was 100 to 500%.
Take `COc1cccc2nnn(CC(=O)[C@H]3CC[C@H]4[C@@H]5CC[C@@H]6C[C@](C)(O)CC[C@@H]6[C@H]5CC[C@]34C)c12` [SA-73]: the activity at 10 µM was 100 to 500%.
As for `C[C@]12CC[C@H]3[C@@H](CC[C@H]4C[C@@](O)(CF)CC[C@@H]43)[C@@H]1CC[C@@H]2C(=O)Cn1nc2ccccc2n1` [SB-13], the activity at 10 µM fell in the range of 100 to 500%.
Same read-out and setting: the value for `COc1cccc2nn(CC(=O)[C@H]3CC[C@H]4[C@@H]5CC[C@@H]6C[C@](C)(O)CC[C@@H]6[C@H]5CC[C@]34C)nc12` [SA-75] was 100 to 500%.
Same read-out and setting: the value for `COC[C@@]1(O)CC[C@H]2[C@@H](CC[C@@H]3[C@@H]2CC[C@]2(C)[C@@H](C(=O)Cn4nc5ccc(F)cc5n4)CC[C@@H]32)C1` [SB-41] was 10 to 100%; that for `COC[C@@]1(O)CC[C@H]2[C@H](CC[C@@H]3[C@@H]2CC[C@]2(C)[C@@H](C(=O)Cn4nnc5ccccc54)CC[C@@H]32)C1` [SA-115] was more than 500%; that for `COc1ccc2nnn(CC(=O)[C@H]3CC[C@H]4[C@@H]5CC[C@H]6C[C@@](O)(CF)CC[C@@H]6[C@H]5CC[C@]34C)c2c1` [SG-22] was 100 to 500%.
Take `COC[C@@]1(O)CC[C@H]2[C@H](CC[C@@H]3[C@@H]2CC[C@]2(C)[C@@H](C(=O)Cn4cc5ncccc5n4)CC[C@@H]32)C1` [SA-116]: the activity at 10 µM is more than 500%.
The same measure, in the same setting: the value for `C[C@]12CC[C@H]3[C@@H](CC[C@@H]4C[C@@](O)(C(F)F)CC[C@@H]43)[C@@H]1CC[C@@H]2C(=O)Cn1cc2ncccc2n1` [SA-93] was more than 500%.
Same read-out and setting: the value for `C[C@]12CC[C@H]3[C@@H](CC[C@@H]4C[C@@](O)(C(F)F)CC[C@@H]43)[C@@H]1CC[C@@H]2C(=O)Cn1nc2ccc(F)cc2n1` [SA-104] was 100 to 500%.
Same read-out and setting: the value for `C[C@]12CC[C@H]3[C@@H](CC[C@@H]4C[C@@](O)(CF)CC[C@@H]43)[C@@H]1CC[C@@H]2C(=O)Cn1ncc2ccncc21` [SA-86] was 100 to 500%.
Regarding `C[C@@]1(O)CC[C@H]2[C@H](CC[C@@H]3[C@@H]2CC[C@]2(C)[C@@H](C(=O)Cn4nnc5ncc(Cl)cc54)CC[C@@H]32)C1` [SA-56], the activity at 10 µM fell in the range of 100 to 500%.
As to `C[C@]12CC[C@H]3[C@@H](CC[C@H]4C[C@@](O)(CF)CC[C@@H]43)[C@@H]1CC[C@@H]2C(=O)Cn1nnc2ccccc21` [SB-12], the activity at 10 µM lay within 100 to 500%.
On the same count and under the same terms, the value for `C[C@@]1(O)CC[C@H]2[C@H](CC[C@@H]3[C@@H]2CC[C@]2(C)[C@@H](C(=O)Cn4ncc5cncnc54)CC[C@@H]32)C1` [SA-36] was more than 500%.
Still for that read-out and setting: the value for `C[C@]12CC[C@H]3[C@@H](CC[C@H]4C[C@@](O)(CF)CC[C@@H]43)[C@@H]1CC[C@@H]2C(=O)Cn1nnc2ccncc21` [SB-26] was 10 to 100%; that for `COC[C@@]1(O)CC[C@H]2[C@H](CC[C@@H]3[C@@H]2CC[C@]2(C)[C@@H](C(=O)Cn4ncc5ncccc54)CC[C@@H]32)C1` [SA-117] was more than 500%; that for `C[C@]12CC[C@H]3[C@@H](CC[C@H]4C[C@@](O)(CF)CC[C@@H]43)[C@@H]1CC[C@@H]2C(=O)Cn1cc2ccncc2n1` [SB-18] was more than 500%.
The same measure, in the same setting: the value for `CC[C@@]1(O)CC[C@H]2[C@@H](CC[C@@H]3[C@@H]2CC[C@]2(C)[C@@H](C(=O)Cn4cc5ncccc5n4)CC[C@@H]32)C1` [SB-29] was 100 to 500%.

The assay is the same for the next values; noted with them: LTK; potentiation of GABA EC20 (2 μM) current; read-out: GABAa alpha1 (α1β2γ2) Emax (%).
Regarding `C[C@@]1(O)CC[C@H]2[C@H](CC[C@@H]3[C@@H]2CC[C@]2(C)[C@@H](C(=O)Cn4ncc5cccnc54)CC[C@@H]32)C1` [SA-19], the Emax lay within 500 to 1000%.

The same assay, now with this note: potentiation of GABA EC20 (2 μM) current; read-out: GABAa alpha1 (α1β2γ2)EC50.
In the case of `C[C@@]1(O)CC[C@H]2[C@H](CC[C@@H]3[C@@H]2CC[C@]2(C)[C@@H](C(=O)Cn4ncc5cccnc54)CC[C@@H]32)C1` [SA-19], the EC50 is more than 2000 nM.
